According to PMC9911596 (Nature Communications, 2023):
Changes are numbered by the printed parent chain.

How the values were obtained:
[1] = molecular target: T1, Vtc1/Vtc3/Vtc4 complex (VTC complex) (Saccharomyces cerevisiae, UniProt P47075+Q02725, P47075:K129A/P47075:K132A/P47075:K136A); experiment: polyP synthesis, TBE-PAGE; assay type: biochemical; conditions: activator; 15 mM ATP, 10 mM MgCl2, 1 mM MnCl2, 0.5 mM pyrophosphate, 27 °C, 4 h; SPX KSC mutant
T1 construct: full-length subunits co-expressed in Expi293F; Vtc1 C-terminal HA, Vtc3 N-terminal 3xFlag, Vtc4 C-terminal 2xStrep; detergent-purified; 3:1:1 pentamer; with Vacuolar transporter chaperone complex subunit 1
T1 sequence (P47075 1-721 K129A/K132A/K136A): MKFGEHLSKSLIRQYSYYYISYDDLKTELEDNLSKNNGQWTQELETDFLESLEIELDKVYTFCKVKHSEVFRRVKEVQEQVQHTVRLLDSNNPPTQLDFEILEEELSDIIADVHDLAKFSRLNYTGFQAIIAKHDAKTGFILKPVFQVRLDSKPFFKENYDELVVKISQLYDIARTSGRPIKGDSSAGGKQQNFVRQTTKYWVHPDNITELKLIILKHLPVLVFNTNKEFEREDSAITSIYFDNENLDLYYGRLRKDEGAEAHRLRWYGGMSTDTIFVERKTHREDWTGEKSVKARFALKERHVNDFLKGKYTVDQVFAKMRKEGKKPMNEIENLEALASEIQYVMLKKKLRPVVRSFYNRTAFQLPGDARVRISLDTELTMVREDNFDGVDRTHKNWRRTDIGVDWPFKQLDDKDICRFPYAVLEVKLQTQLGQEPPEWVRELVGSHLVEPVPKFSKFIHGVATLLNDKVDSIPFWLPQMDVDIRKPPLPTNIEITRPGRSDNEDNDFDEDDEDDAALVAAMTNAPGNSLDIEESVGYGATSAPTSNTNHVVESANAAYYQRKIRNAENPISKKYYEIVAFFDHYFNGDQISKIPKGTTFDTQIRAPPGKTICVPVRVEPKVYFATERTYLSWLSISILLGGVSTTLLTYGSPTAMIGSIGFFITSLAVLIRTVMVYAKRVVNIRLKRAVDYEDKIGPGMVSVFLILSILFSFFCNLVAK
T1 sequence (Q02725 1-835): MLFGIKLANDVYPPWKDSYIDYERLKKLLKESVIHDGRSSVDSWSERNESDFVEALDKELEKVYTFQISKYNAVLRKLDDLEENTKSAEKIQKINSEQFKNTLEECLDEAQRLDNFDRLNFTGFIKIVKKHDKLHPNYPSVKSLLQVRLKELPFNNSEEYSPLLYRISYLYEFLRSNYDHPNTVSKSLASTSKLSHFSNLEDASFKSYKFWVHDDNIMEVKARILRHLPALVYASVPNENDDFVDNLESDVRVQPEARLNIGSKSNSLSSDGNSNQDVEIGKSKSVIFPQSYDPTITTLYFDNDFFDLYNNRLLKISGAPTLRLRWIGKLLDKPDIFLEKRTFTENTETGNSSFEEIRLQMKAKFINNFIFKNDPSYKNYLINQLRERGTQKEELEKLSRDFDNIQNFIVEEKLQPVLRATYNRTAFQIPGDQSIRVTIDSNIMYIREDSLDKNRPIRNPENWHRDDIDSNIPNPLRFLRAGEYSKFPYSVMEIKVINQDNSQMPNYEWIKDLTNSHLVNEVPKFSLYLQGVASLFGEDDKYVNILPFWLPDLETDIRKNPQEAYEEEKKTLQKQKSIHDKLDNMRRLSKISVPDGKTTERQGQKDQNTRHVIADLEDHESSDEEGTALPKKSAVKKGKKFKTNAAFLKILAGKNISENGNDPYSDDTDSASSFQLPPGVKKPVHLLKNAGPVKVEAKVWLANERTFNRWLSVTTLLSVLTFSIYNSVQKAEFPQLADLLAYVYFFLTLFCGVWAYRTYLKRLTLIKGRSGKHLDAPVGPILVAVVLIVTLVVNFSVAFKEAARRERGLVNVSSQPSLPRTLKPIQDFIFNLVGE
T1 sequence (P40046 2-129 partner): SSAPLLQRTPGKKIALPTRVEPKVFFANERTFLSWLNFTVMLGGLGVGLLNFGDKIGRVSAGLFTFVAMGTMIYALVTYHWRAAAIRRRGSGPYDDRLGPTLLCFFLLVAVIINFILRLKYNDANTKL

[2] = molecular target: T2, Vtc1/Vtc3/Vtc4 complex (VTC complex) (Saccharomyces cerevisiae, UniProt P47075+Q02725); experiment: polyP synthesis, TBE-PAGE and DAPI; smFRET; assay type: biochemical; conditions: activator; 15 mM ATP, 10 mM MgCl2, 1 mM MnCl2, 0.5 mM pyrophosphate, ATP regeneration, 27 °C, 4 h; up to 10 mM InsP6; SPX domain of Vtc4 as sensor
T2 construct: full-length subunits co-expressed in Expi293F; Vtc1 C-terminal HA, Vtc3 N-terminal 3xFlag, Vtc4 C-terminal 2xStrep; detergent-purified; 3:1:1 pentamer; with Vacuolar transporter chaperone complex subunit 1
T2 sequence (P47075 1-721): T1 sequence (P47075 1-721 K129A/K132A/K136A) with A129K, A132K, A136K
T2 sequence (Q02725 1-835): T1 sequence (Q02725 1-835)
T2 sequence (P40046 2-129 partner): T1 sequence (P40046 2-129 partner)

O=P(O)(O)O[C@H]1[C@H](OP(=O)(O)O)[C@@H](OP(=O)(O)O)[C@H](OP(=O)(O)O)[C@@H](OP(=O)(O)O)[C@H]1OP(=O)(O)O [InsP6]
polyP synthesis, TBE-PAGE [1]: both reduced InsP6-stimulated polyP synthesis | polyP synthesis, TBE-PAGE and DAPI; smFRET [2]: harbors polyP polymerase activity and that synthesizes polyP in an InsP6 dose-dependent manner
